Counter-ions that a name gives are not always drawn. Like-named read-outs stand apart in the source and are kept apart here.
Experiments:
Escherichia coli = assay: in vitro antibacterial (ABMF) microdilution susceptibility test; assay type: cell-based; details: read-out: ABMF Test M.I.C. E. coli
How it was run: (§1)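 Standard microdilution susceptibility in Mueller-Hinton broth: inoculated wells contain test compound at 1000, 333, 111, 37, 12, 4, 1.4 and 0.46 μg/mL.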

Branhamella catarrhalis = assay: as above; assay type: cell-based; details: Moraxella catarrhalis, read-out: ABMF Test M.I.C. B. cata.
How it was run: as §1

Alcaligenes viscolactis = assay: as above; assay type: cell-based; details: read-out: ABMF Test M.I.C. A. visc.
How it was run: as §1

Bacillus cereus = assay: as above; assay type: cell-based; details: read-out: ABMF Test M.I.C. B. cere.
How it was run: as §1

Streptococcus pneumoniae = assay: as above; assay type: cell-based; details: read-out: ABMF Test M.I.C. S. pneu.
How it was run: as §1

[1] = tested on: lymphocytic leukemia P388; assay: in vivo lymphocytic leukemia P388 test; set-up: species or system CD2 F1 mice; details: Mus musculus, P388, ip, 120 h
How it was run: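 CD2 F1 mice (6–7 per group) inoculated i.p. with P388 ascitic cells; compound dosed i.p. once daily for 5 consecutive days after inoculation. Survival followed 30 days; efficacy as treated/control survival time ×100 (≥125 criterion); "toxic" if all animals died within 4 days of first dose.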

HCT-8 cells = assay: in vitro proliferating human colon adenocarcinoma (HCA) cell screen, HCT-8; assay type: cell-based
Experimental: (a) One test protocol is the in vitro proliferating human colon adenocarcinoma (HCA) cell screen. In this test, HCT-8 cells (HCA cell line received from Yale University) are trypsinized using trypsin-EDTA. A single cell suspension is achieved by passing the cells through a 26 gauge needle with a 20-cc syringe. A cell suspension is prepared using RPMI 1640+10% FCS+50 μg/ml gentamicin sulfate with a cell concentration is approximately 30,000 cells/ml. The cell suspension is dispensed in Linbro 24-well plates; 1 ml/well. The plates are incubated for approximately 48 hours at 37° C. in a 5% CO2 atmosphere. At this time test compounds are added in the appropriate concentration. Five μl of the 200 μg/ml stock solution is added to each well in a primary test. […] of the appropriate dilution is added to each well for a titration test. The plates are reincubated an additional 60 to 65 hours at 37° C. in a 5% CO 2 atmosphere. The cells are lysed using a mix of cationic surfactant, glacial acetic acid, and sodium chloride. Two ml of the lysed cell suspension from each well is added to 8 ml of diluent. The number of nuclei is determined using a Coulter counter (ZBI model), and a percent growth for each drug concentration is calculated. From this, and ID50 (molar concentration of compound that results in 50% inhibition of growth) is determined.

L1210 cells = assay: PDC test, L1210 cell growth; assay type: cell-based, murine; details: Mus musculus, read-out: PDC ID50
Experimental: (c) Another test protocol is the PDC test. L1210 cells, a murine leukemia cell line, were grown in RPMI 1640 supplemented with 10% fetal bovine serum and genamicin (50 μg/ml). Drug dilutions were prepared in the appropriate solvent and 20 μl of each dilution were added to 24-well Linbro tissue culture plates followed by the addition of 2.0 ml of cell suspension containing 3×10^4 cells per ml. Solvent and medium controls were included in each test. After incubation at 37° C. for three days in 5% CO2 in air, the contents of each well were removed and the cells counted in a ZBI Coulter counter. Per cent growth was calculated relative to the controls and the levels of drug activity were expressed as ID50 in terms of molarity (M).

[2] = Mueller-Hinton broth, 37° C., 16-24 hours
[3] = 12.5 mg/kg, intraperitoneally once daily for five days, read-out: P388 in vivo T/C × 100
[4] = 25 mg/kg, intraperitoneally once daily for five days, read-out: P388 in vivo T/C × 100
[5] = HCT-8 cells, 60 to 65 hours, ED50, read-out: HCA ED50 Avg.
[6] = 50 mg/kg, intraperitoneally once daily for five days, read-out: P388 in vivo T/C × 100
[7] = 6.25 mg/kg, intraperitoneally once daily for five days, read-out: P388 in vivo T/C × 100
[8] = read-out: P388 in vivo T/C × 100, 6.25 mg/kg, intraperitoneally once daily for five days
[9] = read-out: P388 in vivo T/C × 100, 12.5 mg/kg, intraperitoneally once daily for five days
[10] = read-out: P388 in vivo T/C × 100, 25 mg/kg, intraperitoneally once daily for five days
[11] = intraperitoneally once daily for five days, read-out: P388 in vivo T/C × 100
[12] = HCT-8, read-out: HCA in vitro ID50 avg.

SMILES	MIC (Escherichia coli; [2]) [µg/mL]	MIC (Branhamella catarrhalis; [2]) [µg/mL]	MIC (Alcaligenes viscolactis; [2]) [µg/mL]	MIC (Bacillus cereus; [2]) [µg/mL]	MIC (Streptococcus pneumoniae; [2]) [µg/mL]	response vs control in vivo at 12.5 mg/kg [1, 3] [%]	response vs control in vivo at 25 mg/kg [1, 4] [%]	IC50 (HCT-8 cells; [5]) [nM]	IC50 (L1210 cells; 72 h, L1210 cells, three days) [nM]	MIC (Escherichia coli) [µg/mL]	MIC (Branhamella catarrhalis) [µg/mL]	MIC (Alcaligenes viscolactis) [µg/mL]	MIC (Bacillus cereus) [µg/mL]	MIC (Streptococcus pneumoniae) [µg/mL]	response vs control in vivo at 6.25 mg/kg [1, 8] [%]	response vs control in vivo at 12.5 mg/kg [1, 9] [%]	IC50 (L1210 cells; L1210, 72 h) [nM]	other results
CCN(CC)CCn1nc2c3c(c([N+](=O)[O-])ccc31)Nc1ccc(N(C)C)cc1-2.CS(=O)(=O)O.CS(=O)(=O)O [Example 33, 9-(Dimethylamino)-N,N-diethyl-5-nitropyrazolo[3,4,5-kl]acridine-2(6H)-ethanamine, methanesulfonate (1:2)]	37	12.3	1.4	37	1.4	127	158	320	900									
CCNCCn1nc2c3c(c([N+](=O)[O-])ccc31)Nc1ccc(OC)cc1-2 [Example 36, N-Ethyl-9-methoxy-5-nitropyrazolo[3,4,5-kl]acridine-2(6H)-ethanamine, 1.25 methanesulfonate salt (4:5), hemihydrate]	1.4	< 0.46	< 0.46	1.4	< 0.46	169	160	120	210									response vs control in vivo at 50 mg/kg [1, 6]: 223%
CCOc1ccc2c(c1)-c1nn(CCN(C)C)c3ccc([N+](=O)[O-])c(c13)N2 [Example 37, 9-Ethoxy-N,N-dimethyl-5-nitropyrazolo[3,4,5-kl]acridine-2(6H)ethanamine, methanesulfonate (4:5)]	< 0.46	1.4	< 0.46	4.1	< 0.46	234		25	270									response vs control in vivo at 3.12 mg/kg ([1]; 3.12 mg/kg, intraperitoneally once daily for five days, read-out: P388 in vivo T/C × 100): 150%; response vs control in vivo at 6.25 mg/kg [1, 7]: 191%
CCOc1ccc2c(c1)-c1nn(CCNCCO)c3ccc([N+](=O)[O-])c(c13)N2 [Example 40, 2-[[2-(9-Ethoxy-5-nitropyrazolo[3,4,5-kl]acridin-2(6H)-yl)ethyl]amino]ethanol, monohydrochloride, hydrate (4:1)]	4.1	4.1	< 0.46	< 0.46	< 0.46	156	169	82	320									response vs control in vivo at 6.25 mg/kg [1, 7]: 134%; response vs control in vivo at 50 mg/kg [1, 6]: 195%
COc1ccc2c(c1)-c1nn(CCCN(C)C)c3ccc([N+](=O)[O-])c(c13)N2 [Example 45, 9-Methoxy-N,N-dimethyl-5-nitropyrazolo[3,4,5-kl]acridine-2(6H)-propanamine,methanesulfonate]										12.3	1.4	< 0.46	1.4	< 0.46	189	227	420	response vs control in vivo at 25 mg/kg [1, 10]: 261%; IC50 (HCT-8 cells; HCT-8, read-out: HCA ED50 Avg.): 140 nM
CC(=O)Oc1ccc2c(c1)-c1nn(CCCN(C)C)c3ccc([N+](=O)[O-])c(c13)N2 [Example 47, 2-[3-(Dimethylamino)propyl]-5-nitropyrazolo[3,4,5-kl]acridin-9-ol, acetate (ester), methanesulfonate (salt) (1:1)]	< 0.46	< 0.46	< 0.46	< 0.46	< 0.46				1.9									response vs control in vivo at 0.39 mg/kg ([1]; 0.39 mg/kg, intraperitoneally once daily for five days, read-out: P388 in vivo T/C × 100): 144%; response vs control in vivo at 0.78 mg/kg [1, 11]: 178%
CN(C)CCCn1nc2c3c(c([N+](=O)[O-])ccc31)Nc1ccc(OC(=O)C(C)(C)C)cc1-2 [Example 48, 2-[3-(Dimethylamino)propyl]-5-nitropyrazolo[3,4,5-kl]acridin-9-ol, 2,2-dimethylpropanoate (ester), methanesulfonate (salt) (1:1)]	3.7	1.4	0.46	333	4.1				9.8									response vs control in vivo at 0.78 mg/kg [1, 11]: 175%; response vs control in vivo at 1.56 mg/kg ([1]; 1.56 mg/kg, intraperitoneally once daily for five days, read-out: P388 in vivo T/C × 100): 263%
CCN(CC)CCn1nc2c3c(c([N+](=O)[O-])cc([N+](=O)[O-])c31)Nc1ccc(OC)cc1-2 [Example 50, N,N-Diethyl-9-methoxy-3,5-dinitropyrazolo[3,4,5-kl]acridine-2(6H)-ethanamine, methanesulfonate (1:1), hydrate]										< 0.46	< 0.46	< 0.46	4.1	< 0.46	160	166	400	response vs control in vivo at 25 mg/kg [1, 10]: 169%; response vs control in vivo at 50 mg/kg ([1]; read-out: P388 in vivo T/C × 100, 50 mg/kg, intraperitoneally once daily for five days): 226%; IC50 (HCT-8 cells; [12]): 66 nM
COc1ccc2c(c1)-c1nn(CCN(C)C)c3c([N+](=O)[O-])cc([N+](=O)[O-])c(c13)N2 [Example 54, 9-Methoxy-N,N-dimethyl-3,5-dinitropyrazolo[3,4,5-kl]acridine-2(6H)-ethanamine, methanesulfonate (1:1), hydrate]										0.46	0.46	0.46	0.46	0.46	169	236	220	response vs control in vivo at 1.56 mg/kg ([1]; read-out: P388 in vivo T/C × 100, 1.56 mg/kg, intraperitoneally once daily for five days): 132%; response vs control in vivo at 3.12 mg/kg ([1]; read-out: P388 in vivo T/C × 100, 3.12 mg/kg, intraperitoneally once daily for five days): 137%; IC50 (HCT-8 cells; [12]): 55 nM

Source: US4555572A, “Pyrazolo[3,4,5-kl]acridine compositions and methods for their production and use” (Warner-Lambert Company, priority 1984, dated 1985)
